These results are taken from patent US20200253870A1, “A LDV LIPOSOMAL FORMULATION OF PHOTO SYSTEM-I FOR TREATMENT OF CANCER” (priority 2016, published 2020).

Data set [1] in a line: MTT cell viability assay in WI38 normal cells. It counts as cell-based. The note with it: human, WI38, 15.62 μg/mL, Table 5 comparison. On the procedure:
B16F10 and WI38 cells were seeded in a 96-well plate at density of 10000 cells per well before 24 h of treatment. Cells were treated with LDV liposomal PSI and normal liposomal PSI separately in complete media for 24 h. After 24 h, MTT assay was performed. […] In case of normal liposomal PSI, inventors have found similar amount of cell viability for both B16F10 and WI38 cells.
B16F10 and A375 cells were treated with the LDV liposomal formulation of PSI and cellular viability was checked using MTT assay. It is a colorimetric assay where MTT (Methyl thiazolyl diphenyl-tetrazolium bromide), a yellow tetrazole compound, is reduced to purple formazan by cellular reductase enzymes of live cells. Dead cells cannot do this type of reduction and are not able to develop the purple colour. Therefore an idea about the amount of cells lived after the treatment of LDV liposomal formulation of PSI with respect to those cells (control) which are not treated with the peptide. The live cells are called as viable cells and it is denoted as % viability in the Y-axis. On the X-axis four different concentrations of the said formulation was plotted. The absorbance at 550 nm was measured and the % viability was calculated.
% Viability=[(A550Treated Cells−A550 Backgrounds)/(A550Untreated Cells−A550 Backgrounds)]*100.
(Tetrazolium assays rely on reduction of a dye to a coloured formazan, in cell work by metabolically active cells.)

Data set [2] concerns A375 cells. The experiment in a line: FACS analysis for apoptosis (annexin V/PI) in A375 cells. It counts as cell-based, human. To be noted: A375, 15.62 μg/mL. On the procedure:
Furthermore FACS analysis using apoptosis detection kit has been performed. FACS analysis, have ascertained that the LDV liposomal formulation of PSI caused apoptotic death of B16F10 and A375 cells (FIGS. 4 and 5). Inventors have performed apoptosis assay using annexin V/PI in B16F10 and A375 cell to compare the amount of apoptotic death of cancer cell due to application of 15.62 μg/mL concentration of LDV liposomal PSI and doxorubicin. Inventors have found large amount of apoptotic death of both the cancer cells (A375 and B16F10) due to LDV liposomal PSI.
Fluorescence activated cell sorting (FACS) experiment was performed for studying the type of cell death. The cell death pathway of B16F10 cells in FACS using apoptosis detection kit was studied. Cells were seeded at a density of ˜5×10^5 cells per well in a 6-well plate before 24 hours of treatment. The cells were treated with solutions of LDV liposomal formulation of PSI. After that cells were incubated for 48 hours. Cells were trypsinized and washed with PBS by help of centrifugation. […] After this another 400 μL of assay buffer was added to the cells and these total 500 μL of cell solution was analyzed by FACS. The emission of Annexin V and PI was detected in the FITC and PI channels of BD LSRFORTESA flow cytometer using emission filters at 530 and 610 nm respectively. […] Data was analyzed using FACS DIVA software. […]
A general note: Flow cytometry measures light scatter and fluorescence of single cells or particles in a stream.

Data set [3] concerns B16F10 cells. The experiment in a line: FACS analysis for apoptosis (annexin V/PI) in B16F10 cells. It counts as cell-based, mouse. To be noted: B16F10, 15.62 μg/mL, 48 hours. On the procedure:
Fluorescence activated cell sorting (FACS) experiment was performed for studying the type of cell death. The cell death pathway of B16F10 cells in FACS using apoptosis detection kit was studied. Cells were seeded at a density of ˜5×10^5 cells per well in a 6-well plate before 24 hours of treatment. The cells were treated with solutions of LDV liposomal formulation of PSI. After that cells were incubated for 48 hours. Cells were trypsinized and washed with PBS by help of centrifugation. Cells were incubated in dark at 37° C. for 30 minutes with a 100 μL solution of assay buffer containing 2.5 μL of Propidium iodide (PI) and 2.5 μL of annexin V. All these reagents were supplied along with the apoptosis detection kit (Santa Cruz Biotechnology). The stock concentration of Propidium iodide and annexin V was 50 μg/mL and 200 μg/mL respectively. After this another 400 μL of assay buffer was added to the cells and these total 500 μL of cell solution was analyzed by FACS. The emission of Annexin V and PI was detected in the FITC and PI channels of BD LSRFORTESA flow cytometer using emission filters at 530 and 610 nm respectively. In the represented data, cells in the Q1, Q2 and Q4 quadrants are regarded as necrotic, late apoptotic and early apoptotic cells respectively. Cells in the Q3 quadrant are regarded as normal cells or healthy cells. Data was analyzed using FACS DIVA software. […]

The subject of data set [4] is B16F10 cells. The data set is described as follows: MTT cell viability assay in B16F10 cells. It counts as cell-based. The note with it: Mus musculus, B16-F10, B16F10, 15.62 μg/mL, Table 5 comparison, 24 h.
Experimental: B16F10 and A375 cells were treated with the LDV liposomal formulation of PSI and cellular viability was checked using MTT assay. It is a colorimetric assay where MTT (Methyl thiazolyl diphenyl-tetrazolium bromide), a yellow tetrazole compound, is reduced to purple formazan by cellular reductase enzymes of live cells. Dead cells cannot do this type of reduction and are not able to develop the purple colour. […] The live cells are called as viable cells and it is denoted as % viability in the Y-axis. On the X-axis four different concentrations of the said formulation was plotted. The absorbance at 550 nm was measured and the % viability was calculated.
(§1) Cells were seeded at a density of 10000 cells per well in 96-well plate before 24 hours of treatment. Cells were treated with different concentrations of LDV liposomal formulation of PSI. After that cells were incubated for 48 hours in complete media. MTT solution (5 mg/mL) was prepared in PBS. 50 μL of MTT solution was added into each well and incubated at 37° C. for 4 hours. Purple colored formazan was dissolved in 1:1 (v/v) DMSO/MeOH and absorbances of the wells were measured at 550 nm by micro-plate ELISA reader. The % viability from this absorbance values was calculated.
For data set [5], the system named is A375 cells. The experiment in a line: cells. It counts as cell-based, human. The note with it: A-375, MTT.
Experimental: B16F10 and A375 cells were treated with the LDV liposomal formulation of PSI and cellular viability was checked using MTT assay. […] Therefore an idea about the amount of cells lived after the treatment of LDV liposomal formulation of PSI with respect to those cells (control) which are not treated with the peptide. […] The absorbance at 550 nm was measured and the % viability was calculated.
as §1
A375 cells were seeded at a density of 10000 cells per well in 96-well plate before 24 hours of treatment. Cells were treated with LDV-liposome-PSI and doxorubicin for 24 hours. MTT assay as described was performed and IC50 value was calculated using CompuSyn software.

≈ marks a conversion by molar mass, not a printed value.

`COc1cccc2c1C(=O)c1c(O)c3c(c(O)c1C2=O)C[C@@](O)(C(=O)CO)C[C@@H]3O[C@H]1C[C@H](N)[C@H](O)[C@H](C)O1` [Doxorubicin]: the viability at 24 h, 15.62 μg/mL in data set [1] is 65.2%. Besides, the results for the “Amount of Apoptotic death of cancer cell (%)” value in data set [2] and in data set [3] were 100% and 99.9%, respectively. This molecule registered a viability at 15.62 µg/mL in data set [4] of 19.9%. The half-maximal inhibitory concentration (IC50) in data set [5] (A375, Melanoma (human), CompuSyn software) turned out to be 10.2 µg/mL (≈ 18.7 µM). In data set [5] (Homo sapiens, A375, 3.12 μg/mL), this molecule showed a viability at 3.12 µg/mL of 94%. In addition, the viability at 6.25 µg/mL in data set [5] (Homo sapiens, A375, 6.25 μg/mL) was 59.2%. In data set [5] (Homo sapiens, A375, 12.5 μg/mL), this molecule displayed a viability at 12.5 µg/mL of 31.5%. The viability at 25 µg/mL in data set [5] (Homo sapiens, A375, 25 μg/mL) was determined as 11.7%. In data set [5] (Homo sapiens, A375, 50 μg/mL), this molecule returned a viability at 50 µg/mL of 4.9%. The viability at 100 µg/mL in data set [5] (Homo sapiens, A375, 100 μg/mL) stood at 6.09%.

Broadly, the viability is a per cent measure of how many cells are alive, often set against a control. High values mean less harm to the cells, low ones more harm to the cells. The IC50 is the point on the concentration scale where inhibition reaches its midpoint.
